# Where two headings read alike, the source gives them in different places.
# What was measured:
# [1] = system: SARS-CoV-2-GHB-03021/2020; experiment: SARS-CoV-2 Infection Model in Huh7 Cells; format: cell-based; details: Severe acute respiratory syndrome coronavirus 2, Huh-7, 96 h, SARS-CoV-2, day 4 p.i., MTS
# [2] = molecular target: HRV3C (Human rhinovirus 14, UniProt P03303); experiment: HRV3C protease assay (duplex, SAMDI-MS); format: biochemical, HRV; details: 30 mins preincubation
# Procedure: Protease assays were performed in 384-well low volume polypropylene microtiter plates at ambient temperature. For the duplex assay, 3CLpro and HRV3C was added using a Multidrop Combi (Thermo Scientific; Waltham, MA) and preincubated for 30 mins with small molecules. The reactions were initiated by the addition of the two peptide substrates. The reactions were incubated for 30 mins and quenched by the addition of 0.5% formic acid (final) with subsequent neutralization using 1% sodium bicarbonate (final). Internal standard peptides were added in 20 mM Hepes pH 8.0 for quantitation of the protease products. For SAMDI-MS analysis, 2 μL of each reaction mixture was transferred using a 384-channel automated liquid handler to SAMDI biochip arrays functionalized with a neutravidin-presenting self-assembled monolayer. The SAMDI arrays were incubated for 1 h in a humidified chamber to allow the specific immobilization of the biotinylated peptide substrates, cleaved products and internal standards. The samples were purified by washing the SAMDI arrays with deionized ultrafiltered water and dried with compressed air. A matrix comprising alpha-cyano cinnamic acid in 80% acetonitrile:20% aqueous ammonium citrate was applied in an automated format by dispensing 50 nL to each spot in the array. SAMDI-MS was performed using reflector-positive mode on an AB Sciex TOF-TOF 5800 System (AB Sciex, Framingham, MA) with 400 shots/spot analyzed in a random raster sampling. For data analysis, area under the curves (peaks) (AUCs) for the product and internal standard were calculated using the TOF/TOF Series Explorer (AB Sciex), and the amount of product formed was calculated using the equation (AUC product/AUC internal standard). The amount of product generated was calculated using the ratio of product area under the curve (AUC) divided by the AUC of the internal standard. Negative controls were pre-quenched with 0.5% formic acid final. Assay robustness was determined by Z-Factor. The IC50s were determined by fitting the curves using a four-parameter equation in Graphpad Prism 8.
# [3] = molecular target: T1, human cathepsin L (Homo sapiens, UniProt P07711); experiment: cathepsin L assay; format: biochemical; details: 10 pM human cathepsin L, Z-FR-AMC 2 μM, class symbols
# T1 construct: purchased R&D Systems
# Procedure: For the cathepsin L assay, 10 pM of human cathepsin L (R&D Systems; Minneapolis, MN) was preincubated for 30 mins with test compounds. Reactions were initiated by the addition of a peptide substrate Z-FR-AMC (final concentration 2 μM, Anaspec; Fremont, CA). Fluorescence was measured at 2-minute intervals for 30 mins using a 355/460 excitation/emission filter module on an Envision plate reader (Perkin Elmer; Waltham, MA). The IC50 values were calculated for each assay by fitting the curves using a four-parameter equation in GraphPad Prism.
# [4] = Cytotoxicity plates without OC43 virus (cell-titer-glo); format: cell-based, human; details: human; HeLa cells without OC43 virus, class symbols
# Procedure: The human beta-coronavirus OC43 was purchased from ATCC (Manassas, VA) and propagated using HCT-8 human colorectal epithelial cells (ATCC). HeLa human cervical epithelial cells (ATCC) were used as susceptible host cell lines and were cultured using EMEM media, supplemented with 10% fetal bovine serum (FBS), 1% (v/v) penicillin/streptomycin (P/S), 1% (v/v) HEPES and 1% (v/v) Cellgro Glutagro™ supplement (all Corning, Manassas, VA) at 37° C. For the OC43 antiviral assay, 1.5×10^4 HeLa cells per well were plated in 100 μL complete media in white 96-well plates with clear bottoms at 37° C. for up to 24 h to facilitate attachment and allow cells to recover from seeding stresses. Next day, the cell culture medium was removed. Serially diluted compounds in 100 μL assay media (EMEM, 2% FBS, 1% P/S, 1% Cellgro Glutagro™ supplement, 1% HEPES) were added to the cells and incubated for 4H at 37° C. in a humidified 5% CO2 incubator. 100 μL of OC43 virus stock was diluted to a concentration known to produce optimal cytopathic effect, inducing 80-90% reduction in cell viability. 96-well plates were incubated for 6 (HeLa) days at 33° C.; each plate contains uninfected control wells as well as virus-infected wells that were not treated with compound. Cytotoxicity plates without the addition of OC43 virus were carried out in parallel. At the end of the incubation period, 100 μL cell culture supernatant was replaced with 100 μL cell-titer-glo reagent (Promega, Madison, WI) and incubated for at least 10 min at rt prior to measuring luminescence. Luminescence was measured on a Perkin Elmer (Waltham, MA) Envision plate reader. Antiviral % inhibition was calculated as follows: [(Compound treated cells infected sample)−(no compound infected control)]/[(Uninfected control)−(no compound infected control)]*100; Using GraphPad (San Diego, CA) prism software version 8.3.1, the antiviral dose-response plot was generated as a sigmoidal fit, log(inhibitor) vs response-variable slope (four parameters) model and the EC50 was calculated which is the predicted compound concentration corresponding to a 50% inhibition of the viral cytopathic effect.
# [5] = molecular target: 3CLpro (Severe acute respiratory syndrome coronavirus 2, UniProt P0DTD1); experiment: SARS-CoV-2 3CLpro protease assay (duplex, SAMDI-MS); format: biochemical; design: For the duplex assay, 3CLpro and HRV3C was added; details: 3CLpro, 30 mins preincubation, read-out: SARS-Cov-2 IC50
# [6] = in vitro; details: human
# [7] = system: human beta-coronavirus OC43; experiment: microbe, parasite or virus in culture; format: cell-based; details: Betacoronavirus 1, OC43, HeLa, 144 h
# [8] = in vitro; details: African green monkey, VeroE6 + CP (CC50), Vero E6-eGFP cells with CP-100356, absence of virus, MTS
# [9] = system: SARS-CoV-2-GHB-03021/2020; experiment: microbe, parasite or virus in culture; format: cell-based; details: Severe acute respiratory syndrome coronavirus 2, Vero C1008, 96 h; read-out: VeroE6 + CP (EC50)
# [10] = HRV3C, bound, read-out: HRV IC50
# [11] = OC43 in HeLa cells, 6 days at 33° C., class symbols, read-out: EC50
# [12] = HRV3C, class symbols, read-out: HRV IC50
# [13] = OC43 in HeLa cells, 6 days at 33° C., bound, read-out: EC50
Compound,EC50 ([1]; numeric bounds) [µM],"IC50 ([2]; HRV IC50, HRV3C, bound) [µM]",IC50 [3] [µM],CC50 at 6 days [4] [µM],IC50 ([5]; class symbols) [µM],CC50 [6] [µM],EC50 [7] [µM],EC50 ([1]; class symbols) [µM],"IC50 [2, 10] [µM]","EC50 [7, 11] [µM]","IC50 [2, 12] [µM]",CC50 ([8]; numeric bounds) [µM],EC50 [9] [µM],CC50 ([8]; class symbols) [µM],"IC50 ([2]; HRV IC50, HRV3C, class symbols) [µM]","EC50 [7, 13] [µM]",IC50 ([5]; bound) [µM]
"O=C(NCc1ccccc1)C(=O)[C@H](Cc1cc[nH]n1)NC(=O)[C@@H]1CC2(CC2)CN1C(=O)c1cc2ccccc2[nH]1 [Compound 96, (S)—N—((S)-4-(benzylamino)-3,4-dioxo-1-(1H-pyrazol-3-yl)butan-2-yl)-5-(1H-indole-2-carbonyl)-5-azaspiro[2.4]heptane-6-carboxamide]",> 100,> 10,1 to 10,> 10,2 to 20,> 10,1 to 10,,,,,,,,,,
"COc1c(Cl)ccc2[nH]c(C(=O)N3C[C@@H]4CCC[C@@H]4[C@H]3C(=O)N[C@@H](C[C@@H]3CCNC3=O)C(=O)CO)cc12 [Compound 68, (1S,3aR,6aS)-2-(5-chloro-4-methoxy-1H-indole-2-carbonyl)-N—((S)-4-hydroxy-3-oxo-1-((S)-2-oxopyrrolidin-3-yl)butan-2-yl)octahydrocyclopenta[c]pyrrole-1-carboxamide]",,,≥ 10,> 10,0.02 to 0.2,> 100,,1 to 10,> 10,0.1 to 1,,,,,,,
COc1cccc2[nH]c(C(=O)N3C[C@@H]4CCC[C@@H]4[C@H]3C(=O)N[C@@H](C[C@@H]3CCNC3=O)C(=O)CO)nc12 [Compound 37],,,≥ 10,> 10,0.02 to 0.2,> 100,,1 to 10,,1 to 10,20 to 100,,,,,,
"O=C[C@H](C[C@@H]1CCNC1=O)NC(=O)[C@@H]1[C@H]2CCC[C@H]2CN1C(=O)c1cc2ccccc2[nH]1 [Compound 13, (1S,3aR,6aS)-2-(1H-indole-2-carbonyl)-N-[(2S)-1-oxo-3-[(3S)-2-oxopyrrolidin-3-yl]propan-2-yl]-hexahydro-1H-cyclopenta[c]pyrrole-1-carboxamide]",,,1 to 10,> 10,< 0.02,,,,,1 to 10,0.2 to 2,> 100,1 to 10,,,,
"COc1ccnc2[nH]c(C(=O)N3C[C@@H]4CCC[C@@H]4[C@H]3C(=O)N[C@@H](C[C@@H]3CCNC3=O)C(=O)CO)cc12 [Compound 67, (1S,3aR,6aS)—N-[(2S)-4-hydroxy-3-oxo-1-[(3S)-2-oxopyrrolidin-3-yl]butan-2-yl]-2-{4-methoxy-1H-pyrrolo[2,3-b]pyridine-2-carbonyl}-hexahydro-1H-cyclopenta[c]pyrrole-1-carboxamide]",,,≥ 10,> 10,0.02 to 0.2,> 100,,10 to 100,> 10,1 to 10,,,,,,,
"Cn1ccc2[nH]c(C(=O)N3C[C@@H]4CCC[C@@H]4[C@H]3C(=O)N[C@@H](C[C@@H]3CCNC3=O)C(=O)CO)cc2c1=O [Compound 77, (1S,3aR,6aS)—N—((S)-4-hydroxy-3-oxo-1-((S)-2-oxopyrrolidin-3-yl)butan-2-yl)-2-(5-methyl-4-oxo-4,5-dihydro-1H-pyrrolo[3,2-c]pyridine-2-carbonyl)octahydrocyclopenta[c]pyrrole-1-carboxamide]",,,≥ 10,> 10,0.02 to 0.2,,> 10,,,,,,10 to 100,> 10,2 to 20,,
"COc1cccc2[nH]c(C(=O)N3C[C@@H]4CCC[C@@H]4[C@H]3C(=O)N[C@@H](C[C@@H]3CCNC3=O)C(=O)c3nc4ccccc4[nH]3)cc12 [Compound 92, (1S,3aR,6aS)—N-[(2S)-1-(1H-1,3-benzodiazol-2-yl)-1-oxo-3-[(3S)-2-oxopyrrolidin-3-yl]propan-2-yl]-2-(4-methoxy-1H-indole-2-carbonyl)-hexahydro-1H-cyclopenta[c]pyrrole-1-carboxamide]",,> 10,≥ 10,> 10,0.2 to 2,,,,,,,> 100,10 to 100,,,> 10,
O=C(NCc1ccccc1)C(=O)C(C[C@@H]1CCNC1=O)NC(=O)[C@@H]1CC2(CC2)CN1C(=O)c1cc2ccccc2[nH]1 (some centres unmarked) [Compound 9],,,0.1 to 1,> 10,0.02 to 0.2,,,,,0.1 to 1,2 to 20,> 100,1 to 10,,,,
COc1cccc2[nH]c(C(=O)N3Cc4ccccc4C[C@H]3C(=O)N[C@@H](C[C@@H]3CCNC3=O)C(=O)COCc3ccccc3)cc12 [Compound 99],,,≥ 10,> 10,2 to 20,,,,> 10,,,,10 to 100,> 10,,> 10,
"COc1cccc2[nH]c(C(=O)N3C[C@@H]4CCC[C@@H]4[C@H]3C(=O)N[C@@H](C[C@@H]3CCNC3=O)C(=O)c3cnc[nH]3)cc12 [Compound 74, (1S,3aR,6aS)—N-[(2S)-1-(3H-imidazol-4-yl)-1-oxo-3-[(3S)-2-oxopyrrolidin-3-yl]propan-2-yl]-2-(4-methoxy-1H-indole-2-carbonyl)-hexahydro-1H-cyclopenta[c]pyrrole-1-carboxamide]",,> 10,≥ 10,> 10,,,> 10,,,,,,10 to 100,> 10,,,> 10
COc1cccc2[nH]c(C(=O)N3C[C@@H]4CCC[C@@H]4[C@H]3C(=O)N[C@@H](C[C@@H]3CCNC3=O)C(=O)C(=O)NCC(F)(F)F)cc12 [Compound 114],,,≥ 10,> 10,0.2 to 2,,,,,1 to 10,2 to 20,> 50,10 to 100,,,,

# — patent publication US11952365B2, “Anti-viral compounds” (Aligos Therapeutics, Inc., priority 2020, dated 2024)
